This is an account of results in US20070015723A1, “Antiviral oligonucleotides having a conserved G4 core sequence” (priority 1992, published 2007).

Values joined by “and” are separate entries in the source; they are usually repeats but may differ in a detail not shown here. Identical values can stand only once. Strand notation (5' to 3'): a small letter for the sugar, then the base; units joined by * are phosphorothioate-linked, units joined directly phosphodiester-linked; [ ] holds rarer units or linkages, { } end groups; capitals alone tell only the bases. d = 2'-deoxy (DNA) Some results are limits rather than exact numbers.

The term EC50 denotes the concentration that produces a half-maximal response. A high value points to a need for much substance.

The first series has as its system HSV-1 (KOS). Briefly: HSV-1 infection ELISA assay. It is filed as cell-based. The following applies: 50% inhibition of HSV replication relative to control infected cells; Table 1. (In general: In an ELISA, binding on a coated surface is turned into a signal by an enzyme label.)
“ISIS 5302: CAC GAA AGG CAT GAC, P = S, SEQ ID NO 7 (CACGAAAGGCATGAC; all phosphorothioate, sugars by position and methylation of C not given here)”: the EC50 was greater than 3000 nM.

Take “ISIS 4882: CAT GGC GGG ACT ACG, P = S, SEQ ID NO 9 (CATGGCGGGACTACG; all phosphorothioate, sugars by position and methylation of C not given here)”: the EC50 is 1700 nM and 1400 nM. Regarding “ISIS 4894: CAT CGC CGA TCG GGG, P = S, SEQ ID NO 18 (CATCGCCGATCGGGG; all phosphorothioate, sugars by position and methylation of C not given here)”, the EC50 was greater than 3000 nM. Same read-out and setting: the same measure for “ISIS 5365: GA GAC CGG GGT TGG GG, P = S, SEQ ID NO 23 (GAGACCGGGGTTGGGG; all phosphorothioate, sugars by position and methylation of C not given here)”: 470 nM; for “ISIS 4872: GGC GGG ACT ACG GGG, P = S, SEQ ID NO 11 (GGCGGGACTACGGGG; all phosphorothioate, sugars by position and methylation of C not given here)”: 1900 nM and 1700 nM; for “ISIS 4885: A GAC CGG GGT TGG GG, P = S, SEQ ID NO 24 (AGACCGGGGTTGGGG; all phosphorothioate, sugars by position and methylation of C not given here)”: 420 nM and 510 nM.

Substance “ISIS 4693: G T ATA G AAG GGC TCC, P = S, SEQ ID NO 52 (GTATAGAAGGGCTCC; all phosphorothioate, sugars by position and methylation of C not given here)” displayed a half-maximal effective concentration (EC50) greater than 3000 nM. The same measure, in the same setting: the same measure for “ISIS 4692: T GGG T ATA G AAG GGC TCC, P = S, SEQ ID NO 51 (TGGGTATAGAAGGGCTCC; all phosphorothioate, sugars by position and methylation of C not given here)”: 1500 nM; for “ISIS 4874: AGG CAT GAC CGG GGC, P = S, SEQ ID NO 3 (AGGCATGACCGGGGC; all phosphorothioate, sugars by position and methylation of C not given here)”: 1100 nM and 830 nM. In the case of “ISIS 4664: GGG T GGG T ATA G AAG G GC, P = S, SEQ ID NO 48 (GGGTGGGTATAGAAGGGC; all phosphorothioate, sugars by position and methylation of C not given here)”, the EC50 came to 200 nM. Same read-out and setting: as for “ISIS 5356: CGG GGT TGG GG, P = S, SEQ ID NO 25 (CGGGGTTGGGG; all phosphorothioate, sugars by position and methylation of C not given here)”, the figure is 700 nM; as for “ISIS 4890: GCC AGG GGA ATC CGT, P = S, SEQ ID NO 15 (GCCAGGGGAATCCGT; all phosphorothioate, sugars by position and methylation of C not given here)”, 750 nM and 700 nM.

Still in this series, the particulars now being: HSV-1 (KOS strain); Table 9; some in duplicate.
“ISIS 4399: GTCCCGACTGGGGCGAGGAT, phosphorothioate, SEQ ID NO 133 (GTCCCGACTGGGGCGAGGAT; antisense; all phosphorothioate, sugars by position and methylation of C not given here)” yielded an EC50 of 250 nM.

As for “ISIS 4111: CCTGGATGATGCTGGGGTAC, phosphorothioate, SEQ ID NO 131 (CCTGGATGATGCTGGGGTAC; antisense; all phosphorothioate, sugars by position and methylation of C not given here)”, the 50% effective concentration (EC50) is 600 nM. As for “ISIS 4342: TTGGAGACCGGGGTTGGGGA, phosphorothioate, SEQ ID NO 128 (TTGGAGACCGGGGTTGGGGA; antisense; all phosphorothioate, sugars by position and methylation of C not given here)”, the midpoint of the response, the EC50, lay at 200 nM. “ISIS 4350: GACGGTCAAGGGGAGGGTTGG, phosphorothioate, SEQ ID NO 129 (GACGGTCAAGGGGAGGGTTGG; all phosphorothioate, sugars by position and methylation of C not given here)” showed an EC50 of 250 nM. With “ISIS 4341: TGGAGACCGGGGTTGGGGAA, phosphorothioate, SEQ ID NO 127 (TGGAGACCGGGGTTGGGGAA; antisense; all phosphorothioate, sugars by position and methylation of C not given here)”, a half-maximal response (EC50) required 200 nM. Still for that read-out and setting: the same measure for “ISIS 4348: GGGTTGGAGACCGGGGTTGG, phosphorothioate, SEQ ID NO 125 (GGGTTGGAGACCGGGGTTGG; all phosphorothioate, sugars by position and methylation of C not given here)”: 400 nM.

The series is the same for the next values; noted with them: Table 12, inosine-substituted.
Consider “ISIS 5296: GTT GGA GAC CGG GGT TGG IG, Inosine #19, SEQ ID NO 139 (GTT GGA GAC CGG GGTTGG IG; inosine at 19, as printed in the source, key not given here)”, for which the EC50 stood at 800 nM. On the same count and under the same terms, the same measure for “ISIS 4925: GTT GGA GAC CGG IGT TGG IG, Inosine #13, 19, SEQ ID NO 137 (GTT GGA GAC CGG IGTTGG IG; inosine at 13, 19, as printed in the source, key not given here)”: 1600 nM.

The next series addresses T1, human type II phospholipase A2 (Homo sapiens, UniProt P14555).
T1 sequence (P14555 21-144): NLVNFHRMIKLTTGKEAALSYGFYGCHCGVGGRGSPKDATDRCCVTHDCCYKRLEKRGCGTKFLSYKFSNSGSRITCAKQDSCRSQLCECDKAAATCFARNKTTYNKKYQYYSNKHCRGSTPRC
Briefly: Human type II phospholipase A2 enzyme assay (3H-oleic acid labelled E. coli substrate). It is filed as biochemical. The note with it: 1 μM; Table 4.
As to “ISIS 3629: CACCCCTCGTTGCTGAGTCCC, phosphorothioate, SEQ ID NO 79 (dC*dA*dC*dC*dC*dC*dT*dC*dG*dT*dT*dG*dC*dT*dG*dA*dG*dT*dC*dC*dC)”, the “% Inhibition (1 μM)” value came to 20.5%. In the case of “ISIS 4149: CTACGGCAGAGACGAGATAGC, phosphorothioate, SEQ ID NO 96 (dC*dT*dA*dC*dG*dG*dC*dA*dG*dA*dG*dA*dC*dG*dA*dG*dA*dT*dA*dG*dC)”, the “% Inhibition (1 μM)” value turned out to be 20.2%. Consider “ISIS 3694: ACAGCAGCTGTGAGGAGACAC, phosphorothioate, SEQ ID NO 92 (dA*dC*dA*dG*dC*dA*dG*dC*dT*dG*dT*dG*dA*dG*dG*dA*dG*dA*dC*dA*dC)”, for which the “% Inhibition (1 μM)” value was found to be 28.2%.

As to “ISIS 3480: TTGCTTTATTCAGAAGAGACC, phosphorothioate, SEQ ID NO 76 (dT*dT*dG*dC*dT*dT*dT*dA*dT*dT*dC*dA*dG*dA*dA*dG*dA*dG*dA*dC*dC)”, the “% Inhibition (1 μM)” value was found to be 24.5%. Still for that read-out and setting: as for “ISIS 3471: AAGGAACTTGGTTAGGGTAGG, phosphorothioate, SEQ ID NO 67 (dA*dA*dG*dG*dA*dA*dC*dT*dT*dG*dG*dT*dT*dA*dG*dG*dG*dT*dA*dG*dG)”, the figure is 34.5%; as for “ISIS 3632: CCAGGAGAGGTCGGTAAGGCG, phosphorothioate, SEQ ID NO 82 (dC*dC*dA*dG*dG*dA*dG*dA*dG*dG*dT*dC*dG*dG*dT*dA*dA*dG*dG*dC*dG)”, 29.2%.

The same series, now with this note: 1 μM; Table 5, two separate experiments.
For “TGG GTA TAG AAG GGC TCC: truncated version of ISIS 3196, SEQ ID NO 99 (dT*dG*dG*dG*dT*dA*dT*dA*dG*dA*dA*dG*dG*dG*dC*dT*dC*dC)”, the “% Inhibition (1 μM)” value is 84.6%. In the case of “ISIS 4962: GGG TGG GTA T, SEQ ID NO 108 (dG*dG*dG*dT*dG*dG*dG*dT*dA*dT)”, the “% Inhibition (1 μM)” value was found to be 36.3%.
